Measured values published in patent EP0799174B1, “BIOCIDAL ALCOHOLS, THEIR PRODUCTION AND THEIR USE” (SCHÜLKE & MAYR GMBH, priority 1994, dated 1996).

Key:
Type in all cases: cell-based
[1] = test system: Candida albicans ATCC 10231; assay: Plate diffusion test (agar diffusion test); conditions: aromatic alcohol 1 part, dimethylformamide 6 parts
From the text: (§1) Standard formulation: • aromatic alcohol 1 part • dimethylformamide 6 parts [table] The diameters of the inhibition zones are given in mm.

[2] = test system: Staphylococcus aureus ATCC 6538; assay: Plate diffusion test (agar diffusion test); conditions: aromatic alcohol 1 part, dimethylformamide 6 parts
From the text: as §1

[3] = test system: Pseudomonas aeruginosa ATCC 15442; assay: Plate diffusion test (agar diffusion test); conditions: aromatic alcohol 1 part, dimethylformamide 6 parts
From the text: as §1

[4] = test system: Escherichia coli ATCC 11229; assay: Plate diffusion test (agar diffusion test); conditions: aromatic alcohol 1 part, dimethylformamide 6 parts
From the text: as §1

[5] = test system: Candida albicans ATCC 10231; assay: MIC values, water-insoluble (covered area of plates, solutions in acetone); conditions: solution in acetone, 100% means no inhibiting action
From the text: (§2) [table] The size of the covered areas of the plates is given in %; 100% means no inhibiting action.

[6] = test system: Staphylococcus aureus ATCC 6538; assay: as above; conditions: solution in acetone, 100% means no inhibiting action
From the text: as §2

[7] = test system: Escherichia coli ATCC 11229; assay: as above; conditions: solution in acetone, 100% means no inhibiting action
From the text: as §2

[8] = test system: Aspergillus niger ATCC 6275; assay: as above; conditions: solution in acetone, 100% means no inhibiting action
From the text: as §2

[9] = test system: P. vulgaris
From the text: as §1

Structure (SMILES) | diameters of the inhibition zones, C. albicans [1] [mm] | diameters of the inhibition zones, S. aureus [2] [mm] | diameters of the inhibition zones, P. aeruginosa [3] [mm] | diameters of the inhibition zones, E. coli [4] [mm] | size of the covered areas of the plates, C. albicans ([5]; concentration 0.25 % by wt.) [%] | size of the covered areas of the plates, C. albicans ([5]; concentration 0.50 % by wt.) [%] | size of the covered areas of the plates, C. albicans ([5]; concentration 1.00 % by wt.) [%] | size of the covered areas of the plates, S. aureus ([6]; concentration 0.25 % by wt.) [%] | size of the covered areas of the plates, S. aureus ([6]; concentration 0.50 % by wt.) [%] | size of the covered areas of the plates, S. aureus ([6]; concentration 1.00 % by wt.) [%] | size of the covered areas of the plates, E. coli ([7]; concentration 0.25 % by wt.) [%] | size of the covered areas of the plates, E. coli ([7]; concentration 0.50 % by wt.) [%] | size of the covered areas of the plates, E. coli ([7]; concentration 1.00 % by wt.) [%] | size of the covered areas of the plates, A. niger ([8]; concentration 0.25 % by wt.) [%] | size of the covered areas of the plates, A. niger ([8]; concentration 0.50 % by wt.) [%] | size of the covered areas of the plates, A. niger ([8]; concentration 1.00 % by wt.) [%] | diameters of the inhibition zones, P. vulgaris [9] [mm] | also measured
CCC(CO)Cc1ccccc1Cl (stereo not shown) [Alcohol 9] | 15 | 15 | 0 | 11 | 100 | 100 | 80 | 100 | 100 | 80 | 100 | 100 | 100 | 100 | 90 | 20 | 0 | –
CCC(CO)Cc1ccc(Cl)cc1 (stereo not shown) [Alcohol 10] | 15 | 14 | 0 | 11 | 100 | 90 | 10 | 100 | 100 | 10 | 100 | 100 | 100 | 90 | 70 | 10 | 0 | size of the covered areas of the plates, C. albicans ([5]; concentration 0.125 % by wt.): 100%; size of the covered areas of the plates, S. aureus ([6]; concentration 0.125 % by wt.): 100%; size of the covered areas of the plates, E. coli ([7]; concentration 0.125 % by wt.): 100%; size of the covered areas of the plates, A. niger ([8]; concentration 0.125 % by wt.): 100%
CCC(CO)Cc1ccc(Cl)c(Cl)c1 (stereo not shown) [Alcohol 11] | 13 | 17 | 0 | 0 | 100 | 80 | 10 | 100 | 90 | 5 | 100 | 100 | 90 | 100 | 70 | 10 | 0 | –
CCC(CO)Cc1ccccc1C (stereo not shown) [Alcohol 12] | 22 | 20 | 15 | 17 | – | 100 | 80 | – | 100 | 90 | – | 100 | 100 | – | 100 | 80 | 13 | –
CCC(CO)Cc1ccc(OC)c(OC)c1 (stereo not shown) [Alcohol 16] | 28 | 18 | 18 | 17 | – | – | – | – | – | – | – | – | – | – | – | – | 17 | –
